From PubChem BioAssay (NCI)
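These data come from cells grown in 96-well plates and exposed to compound for 48 hours at five concentrations. The concentration for full growth arrest is given as TGI.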

test system: EKVX NSCLC; experiment: DTP human tumour cell line panel, 48 h

Compound	TGI [µM]
CCN(CC)C(=C(C(Cl)=C(Cl)Cl)[N+](=O)[O-])N(CC)CC	> 100
O=C1C(=O)c2c(oc(=O)c3ccccc23)-c2ccccc21	> 25
CCOC(=O)C(C(=O)OCC)=C1NC2(c3ccccc3Nc3ccc(C)cc32)C(C#N)S1 (configuration not stated)	39.5
CN1CCC2(CC1)SC[C@H]1C(=O)N(c3ccc(Cl)cc3)C(=O)N12	> 100
CC(C)=CCC[C@@H](C)C1=C(O)C(O)C(C)=C2N=C(c3ccccc3)C(=O)OC21 (some centres not stated)	> 25
Cc1cc([C@H](C#N)c2nc3ccccc3[nH]2)nc(Cl)n1	> 100
CC(C)(C)[Si](C)(C)O[C@@H](C(=O)OC1C=CCCC1)[C@@H](NC(=O)c1ccccc1)c1ccccc1 (some centres not stated)	> 100
Cc1oc2c(c1C)S(=O)(=O)C(C#N)=C(c1ccccc1)N2	> 100
O=C1c2ccccc2C(O)(C(=O)O)C1(O)CC=C(Cl)Cl (configuration not stated)	> 125
CC(=O)O[C@@H]1CC[C@@]2(C)C(CC[C@H]3[C@@H]4CC[C@H]([C@H](C)CCc5nc6ccc(C)cc6[nH]5)[C@@]4(C)CC[C@@H]32)C1 (some centres not stated)	53.3
COc1cccc(OC/C(N=Cc2cccnc2)=N/NC(=O)c2ccncc2)c1	> 100
C/C1=C/C(C)CC(C)OC(=O)C(C)NC(=O)C(Cc2ccc(O)c(I)c2)N(C)C(=O)CNC(=O)C(C)C1 (configuration not stated)	> 21.9
Cc1ccc(-n2cnc3c(N)nc(N)nc32)cc1	> 100
CC12CCC3[C@@H](CC3(C)C)C(O)(CCC1=O)C2 (some centres not stated)	> 100
CO[C@H]1c2cccc3cccc(c23)[C@@H]1n1[nH]c(=O)n(C(C)(C)C)c1=O	> 100
CCCCCCCCCCCCCCCCCCNc1ccn(C2OC(COP(=O)(O)OC3CC(n4cc(F)c(=O)[nH]c4=O)OC3COP(=O)(O)OCC3OC(n4ccc(N)nc4=O)C(O)C3O)C(O)C2O)c(=O)n1 (configuration not stated)	> 74.6

test system: SK-MEL-2 melanoma; experiment: DTP human tumour cell line panel, 48 h

Compound	TGI [µM]
Nc1nc(N)c2cc(Sc3ccc4nc(N)nc(N)c4c3)ccc2n1	> 100
N#CC(C#N)N=Cc1ccncc1	> 100
COc1ccc2c(c1)/C(=C\c1c(C)nc3n1CCS3)C(=O)N2	> 100
COC(=O)C1=C(O)C(C(=O)OC)[C@]2(O)[C@H](C(=O)OC)[C@H]1C[C@@H](c1ccc(F)cc1)[C@H]2C(=O)OC (some centres not stated)	19
CCN(CC)c1cc2c3c(c1)CCCN3CCC2	> 10
CN(C)C=C1C(=O)c2c(Br)sc(Br)c2C1=O	31.3
CC(=O)O[C@H]1CC[C@H]2[C@@H]3CCC4C(C)=NNC(=O)C4[C@H]3CC[C@]12C (some centres not stated)	> 100
COc1cc2c[n+](C)c3c4cc5c(cc4ccc3c2cc1OC)OCO5	6.97
O=c1[nH]c(C23CC4CC(CC(C4)C2)C3)cc2c1c(=O)oc1ccccc12	38.7
O=C1C(=O)c2c(oc(=O)c3ccccc23)-c2ccccc21	> 25
CCOC(=O)C(C(=O)OCC)=C1NC2(c3ccccc3Nc3ccc(C)cc32)C(C#N)S1 (configuration not stated)	22.1
CN1CCC2(CC1)SC[C@H]1C(=O)N(c3ccc(Cl)cc3)C(=O)N12	> 100
CC(C)=CCC[C@@H](C)C1=C(O)C(O)C(C)=C2N=C(c3ccccc3)C(=O)OC21 (some centres not stated)	6.75
Cc1cc([C@H](C#N)c2nc3ccccc3[nH]2)nc(Cl)n1	> 100
CC(C)(C)[Si](C)(C)O[C@@H](C(=O)OC1C=CCCC1)[C@@H](NC(=O)c1ccccc1)c1ccccc1 (some centres not stated)	48.6
Cc1oc2c(c1C)S(=O)(=O)C(C#N)=C(c1ccccc1)N2	> 100
O=C1c2ccccc2C(O)(C(=O)O)C1(O)CC=C(Cl)Cl (configuration not stated)	> 125
CC(=O)O[C@@H]1CC[C@@]2(C)C(CC[C@H]3[C@@H]4CC[C@H]([C@H](C)CCc5nc6ccc(C)cc6[nH]5)[C@@]4(C)CC[C@@H]32)C1 (some centres not stated)	> 100
COc1cccc(OC/C(N=Cc2cccnc2)=N/NC(=O)c2ccncc2)c1	> 100
C/C1=C/C(C)CC(C)OC(=O)C(C)NC(=O)C(Cc2ccc(O)c(I)c2)N(C)C(=O)CNC(=O)C(C)C1 (configuration not stated)	10.2
Cc1ccc(-n2cnc3c(N)nc(N)nc32)cc1	> 100
CC12CCC3[C@@H](CC3(C)C)C(O)(CCC1=O)C2 (some centres not stated)	> 100
CO[C@H]1c2cccc3cccc(c23)[C@@H]1n1[nH]c(=O)n(C(C)(C)C)c1=O	> 100
CCCCCCCCCCCCCCCCCCNc1ccn(C2OC(COP(=O)(O)OC3CC(n4cc(F)c(=O)[nH]c4=O)OC3COP(=O)(O)OCC3OC(n4ccc(N)nc4=O)C(O)C3O)C(O)C2O)c(=O)n1 (configuration not stated)	37.3

test system: CAKI-1 renal; experiment: DTP human tumour cell line panel, 48 h

Compound	TGI [µM]
Nc1nc(N)c2cc(Sc3ccc4nc(N)nc(N)c4c3)ccc2n1	> 100
N#CC(C#N)N=Cc1ccncc1	> 100
COc1ccc2c(c1)/C(=C\c1c(C)nc3n1CCS3)C(=O)N2	> 100
COC(=O)C1=C(O)C(C(=O)OC)[C@]2(O)[C@H](C(=O)OC)[C@H]1C[C@@H](c1ccc(F)cc1)[C@H]2C(=O)OC (some centres not stated)	> 100
CCN(CC)c1cc2c3c(c1)CCCN3CCC2	> 10
CN(C)C=C1C(=O)c2c(Br)sc(Br)c2C1=O	36
CC(=O)O[C@H]1CC[C@H]2[C@@H]3CCC4C(C)=NNC(=O)C4[C@H]3CC[C@]12C (some centres not stated)	> 100
O=c1[nH]c(C23CC4CC(CC(C4)C2)C3)cc2c1c(=O)oc1ccccc12	7.03
CCN(CC)C(=C(C(Cl)=C(Cl)Cl)[N+](=O)[O-])N(CC)CC	> 100
O=C1C(=O)c2c(oc(=O)c3ccccc23)-c2ccccc21	> 25
CCOC(=O)C(C(=O)OCC)=C1NC2(c3ccccc3Nc3ccc(C)cc32)C(C#N)S1 (configuration not stated)	72
CN1CCC2(CC1)SC[C@H]1C(=O)N(c3ccc(Cl)cc3)C(=O)N12	> 100
CC(C)=CCC[C@@H](C)C1=C(O)C(O)C(C)=C2N=C(c3ccccc3)C(=O)OC21 (some centres not stated)	9.89
Cc1cc([C@H](C#N)c2nc3ccccc3[nH]2)nc(Cl)n1	> 100
CC(C)(C)[Si](C)(C)O[C@@H](C(=O)OC1C=CCCC1)[C@@H](NC(=O)c1ccccc1)c1ccccc1 (some centres not stated)	> 100
Cc1oc2c(c1C)S(=O)(=O)C(C#N)=C(c1ccccc1)N2	> 100
O=C1c2ccccc2C(O)(C(=O)O)C1(O)CC=C(Cl)Cl (configuration not stated)	> 125
